What was measured:
Assay in all cases: whole plant or invertebrate
Type in all cases: in vivo
[1] = tested on: rice blast (Piricularia oryzae); conditions: Pyricularia oryzae, 192 h, read-out: % Control RB (percent disease control)
[2] = tested on: rice sheath blight (Pellicularia filamentosa f. sp. sasiki); conditions: Oryza sativa, 120 h, read-out: % Control RSB (percent disease control)
[3] = tested on: cucumber downy mildew (Pseudoperonospora cubensis); conditions: 168 h, read-out: % Control CDM (percent disease control)
[4] = tested on: wheat stem rust (Puccinia graminis f. sp. tritici Race 15B-2); conditions: 336 h, read-out: % Control WSR (percent disease control)
[5] = tested on: wheat powdery mildew (Erysiphe graminis f. sp. tritici); conditions: Blumeria graminis, read-out: % Control WPM (percent disease control)

| SMILES | pest or weed control at 200 ppm [1] | pest or weed control at 200 ppm [2] | pest or weed control at 200 ppm [3] | pest or weed control at 200 ppm [4] | pest or weed control at 200 ppm [5] |
| --- | --- | --- | --- | --- | --- |
| CCCCC(CNC=O)(Cn1cncn1)c1ccc(Cl)cc1 (stereo not shown) [Example 1, N-(2-(4-Chlorophenyl)-2-[(1,2,4-triazol-1-yl)methyl]hexyl)formamide] | 0% | 0% | 0% | 0% | 80% |
| [C-]#[N+]CC(CCCC)(Cn1cncn1)c1ccc(Cl)cc1 (stereo not shown) [Example 2, 2-(4-Chlorophenyl)-2-[(1,2,4-triazol-1-yl)methyl]hexylisocyanide] | 0% | 0% | 0% | 100% | 80% |
| CCCCC(C=O)(Cn1cncn1)c1ccc(Cl)cc1 (stereo not shown) [Example 3, 2-(4-Chlorophenyl)-2-[(1,2,4-triazol-1-yl)methyl]hexanal] | 70% | 50% | 0% | 100% | 100% |
| C=CC(CCCC)(Cn1cncn1)c1ccc(Cl)cc1 (stereo not shown) [Example 4, 3-(4-Chlorophenyl)-3-[(1,2,4-triazol-1-yl)methyl]-1-heptene] | 80% | 60% | 80% | 100% | 100% |
| CCCCC(Cn1cncn1)(C(=O)N=[N+]=[N-])c1ccc(Cl)cc1 (stereo not shown) [Example 5, 2-(4-Chlorophenyl)-2-[(1,2,4-triazol-1-yl)methyl]hexanoylazide] | – | 0% | 20% | 70% | 100% |
| CCCCC(C=NO)(Cn1cncn1)c1ccc(Cl)cc1 (stereo not shown) [Example 6, 2-(4-Chlorophenyl)-(E,Z)-1-hydroxyamino-2-[(1,2,4-triazol-1-yl)methyl]hexanal] | 0% | 0% | 0% | 100% | 100% |
| CCCCC(Cn1cncn1)(NC=O)c1ccc(Cl)cc1 (stereo not shown) [Example 8, N-[2-(4-Chlorophenyl)-1-(1,2,4-triazol-1-yl)-2-hexyl]formamide] | 0% | – | 0% | 60% | 100% |
| [C-]#[N+]C(CCCC)(Cn1cncn1)c1ccc(Cl)cc1 (stereo not shown) [Example 9, 2-(4-Chlorophenyl)-1-(1,2,4-triazol-1-yl)-2-hexylisocyanide] | 80% | 0% | 0% | 90% | 100% |
| CCCCC(Cn1cncn1)(NC(C)=O)c1ccc(Cl)cc1 (stereo not shown) [Example 10, N-[2-(4-Chlorophenyl)-1-(1,2,4-triazol-1-yl)-2-hexyl]acetamide] | 0% | 70% | 0% | 0% | 30% |

Source: patent US5364870A (priority 1993, dated 1994)
